The test system of one series is testicular cancer. As to conditions: strongly reduced DNA repair capacity; cited from earlier work.
Series [1] relates to non-small cell lung cancer (NSCLC). As to conditions: higher levels of DNA repair capacity; cited from earlier work.
Series [2] concerns human DNA extracted from cells. In words: Relative fragmentation-induced Profile Deviation: Fpg treatment and Molecular Combing of DNA from cells exposed to H2O2. Type of series: cell-based. Here is the method:
Construction of a DNA length reference profile of a healthy cellular population and comparison of the profile obtained from the same population after exposure to a genotoxic agent is performed. High resolution DNA length reference profiles are constructed by measuring the size of thousands of DNA molecules uniformly stretched on a combed slide.
In the case of damage generated at high frequency along the genome (for instance SSB, abasic sites, methylated, alkylated, oxidated bases, photoproducts), the conversion of most of the targeted lesions into DSB generates theoretically as much new DNA extremities as much lesions were present on the molecules. When comparing the length distribution profile of the damaged sample with the undamaged reference, a Profile Deviation (PD) associated to a specific damage appears. The amount of lesions generated by the genotoxic compound can then be estimated directly from the PD. […]
For direct visualization of stretched DNA, cover-slips were mounted with 20 μL of a Block-Aid (Invitrogen, ref. B-10710)-YOYO-1 iodide (Molecular Probes, code Y3601) mixture (10000:1 v/v) in order to counter-stain all stretched molecules. […] Length of the YOYO-1-stained DNA fibers were measured with internal software GVlab v0.4.6 (Genomic Vision S.A., Paris, France).

This is an account of results in US20120076871A1, “METHOD FOR DETECTING, QUANTIFYING AND MAPPING DAMAGE AND/OR REPAIR OF DNA STRANDS” (GENOMIC VISION SA, priority 2010, published 2012).

As for `N.N.[Cl][Pt][Cl]` [cisplatin], in the series on testicular cancer, the “survival rate after cisplatin treatment” value is 95%. Further, the “survival after cisplatin treatment” value in series [1] is listed as “low survival”.

For the compound `OO` [H2O2], the “decay constants τ of exponential fit y=Ae^-x/τ of DNA size distribution as a function of H2O2 dose” value in series [2] (1, 5, 10 and 20 mM H2O2, 10 min, control excluded from linear fit) is given as “decrease linearly”. The “length of stretched DNA strands (clustered oxidative damage) after Fpg treatment” value in series [2] (cells incubated 10 min with 10 and 20 mM H2O2, compared to control sample) is on record as “much shorter than in the control sample”.
